Measurements from ChEMBL document CHEMBL1201862, “PubChem BioAssay data set” (2004).
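Grown in 96-well plates, cells were treated for 48 hours with each compound at five concentrations. Insufficient inhibition: endpoint recorded as highest concentration tested. GI50 is the concentration that inhibits growth by half.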 Activity calls are given as the source filed them. Rule as the data show it: active = GI50 up to about 1.1 µM and inactive = higher.

Tests used:
Test in all cases: DTP human tumour cell line panel, 48 h
[1] = test system: OVCAR-5
[2] = test system: CAKI-1
[3] = test system: U-251
[4] = test system: NCI-H23
[5] = test system: A498
[6] = test system: SF-539
[7] = test system: K562
[8] = test system: NCI-H460
[9] = test system: SK-MEL-28
[10] = test system: NCI-H226
[11] = test system: HOP-62
[12] = test system: UACC-62
[13] = test system: Malme-3M
[14] = test system: KM12
[15] = test system: IGROV-1
[16] = test system: SNB-19
[17] = test system: A549
[18] = test system: TK-10
[19] = test system: COLO 205
[20] = test system: RXF 393

SMILES | GI50 [1] | GI50 [2] | GI50 [3] | GI50 [4] | GI50 [5] | GI50 [6] | GI50 [7] | GI50 [8] | GI50 [9] | GI50 [10] | GI50 [11] | GI50 [12] | GI50 [13] | GI50 [14] | GI50 [15] | GI50 [16] | GI50 [17] | GI50 [18] | GI50 [19] | GI50 [20]
O=C1Nc2ccccc2C1Cc1ccccc1 (stereo unspecified) | > 100 µM (inactive) | > 100 µM (inactive) | > 100 µM (inactive) | > 100 µM (inactive) | > 100 µM (inactive) | > 100 µM (inactive) | > 100 µM (inactive) | > 100 µM (inactive) | > 100 µM (inactive) | > 100 µM (inactive) | > 100 µM (inactive) | > 100 µM (inactive) | > 100 µM (inactive) | > 100 µM (inactive) | > 100 µM (inactive) | > 100 µM (inactive) | > 100 µM (inactive) | > 100 µM (inactive) | > 100 µM (inactive) | 
c1cc2nnsc2s1 | > 100 µM (inactive) | > 100 µM (inactive) | > 100 µM (inactive) | > 100 µM (inactive) | > 100 µM (inactive) | > 100 µM (inactive) | > 100 µM (inactive) | > 100 µM (inactive) | > 100 µM (inactive) | > 100 µM (inactive) | > 100 µM (inactive) | > 100 µM (inactive) | > 100 µM (inactive) | > 100 µM (inactive) | > 100 µM (inactive) | > 100 µM (inactive) |  | > 100 µM (inactive) | 42.3 µM (inactive) | 
CC12C/C(=C\c3ccccc3)C(=O)C3C1CCCC32 | > 100 µM (inactive) | > 100 µM (inactive) | 61.4 µM (inactive) | > 100 µM (inactive) | > 100 µM (inactive) | > 100 µM (inactive) | 38.6 µM (inactive) | > 100 µM (inactive) | > 100 µM (inactive) | > 100 µM (inactive) | > 100 µM (inactive) | > 100 µM (inactive) | > 100 µM (inactive) | 55.1 µM (inactive) | > 100 µM (inactive) | > 100 µM (inactive) | > 100 µM (inactive) | > 100 µM (inactive) | 87.1 µM (inactive) | 
CCOC(=O)c1ccc(/N=N/c2cc(C(=O)OCC)ccc2O)cc1 |  | 46.6 µM (inactive) | > 100 µM (inactive) | > 100 µM (inactive) | 68.9 µM (inactive) | > 100 µM (inactive) | > 100 µM (inactive) | > 100 µM (inactive) | > 100 µM (inactive) |  | > 100 µM (inactive) | > 100 µM (inactive) |  |  | > 100 µM (inactive) |  | > 100 µM (inactive) | > 100 µM (inactive) | > 100 µM (inactive) | > 100 µM (inactive)
O=[N+]([O-])c1ccc(N/N=C(\c2ccccc2)c2ccccn2)nc1 | 14.4 µM (inactive) | 0.497 µM (active) | 1.26 µM (inactive) | 0.845 µM (active) | > 100 µM (inactive) | 1.52 µM (inactive) |  | 0.957 µM (active) | 9.14 µM (inactive) |  | 8.57 µM (inactive) | 2.5 µM (inactive) | 0.0367 µM (active) | 6.62 µM (inactive) | 1.11 µM (active) | 9.48 µM (inactive) | 4.48 µM (inactive) |  | < 0.0391 µM (active) | 5.56 µM (inactive)
CC1(C)C2C/C(=C\c3ccccc3)C(=O)C1C2 (stereo unspecified) | > 100 µM (inactive) | > 100 µM (inactive) | > 100 µM (inactive) | 55.8 µM (inactive) | > 100 µM (inactive) | > 100 µM (inactive) | > 100 µM (inactive) | > 100 µM (inactive) | 87.5 µM (inactive) |  | > 100 µM (inactive) | > 100 µM (inactive) | > 100 µM (inactive) | > 100 µM (inactive) | > 100 µM (inactive) | > 100 µM (inactive) | 93.5 µM (inactive) | > 100 µM (inactive) | > 100 µM (inactive) | 27.6 µM (inactive)
COc1ccc(/N=C(/[N-]n2c(=O)c(C)nn(C)c2=S)N(c2ccc(OC)cc2)c2n[n+]3c(=O)c(C)nn(C)c3s2)cc1 | > 100 µM (inactive) |  | > 100 µM (inactive) | > 100 µM (inactive) | 93.3 µM (inactive) | > 100 µM (inactive) | > 100 µM (inactive) | > 100 µM (inactive) | > 100 µM (inactive) | > 100 µM (inactive) | > 100 µM (inactive) | > 100 µM (inactive) |  | > 100 µM (inactive) | > 100 µM (inactive) | > 100 µM (inactive) | > 100 µM (inactive) |  | > 100 µM (inactive) | > 100 µM (inactive)
COc1ccc(OC)c2c1C=CC(Br)=CC2 |  | 0.269 µM (active) | 0.43 µM (active) | 0.259 µM (active) | 0.324 µM (active) | 0.653 µM (active) | 0.173 µM (active) | 0.211 µM (active) | 0.35 µM (active) | 0.372 µM (active) | 0.269 µM (active) | 0.137 µM (active) | 0.145 µM (active) | 0.309 µM (active) | 0.279 µM (active) | 0.611 µM (active) | 0.303 µM (active) | 0.292 µM (active) | 0.314 µM (active) | 
CCOC(=O)CNc1nc(=O)c2c(=O)oc(Cl)cc2o1 | 18.5 µM (inactive) | 12.9 µM (inactive) | 24.8 µM (inactive) | 19.1 µM (inactive) | 17.5 µM (inactive) | 6.79 µM (inactive) | 6.25 µM (inactive) | 16.6 µM (inactive) | 22.9 µM (inactive) | > 100 µM (inactive) | 25.4 µM (inactive) | 18.2 µM (inactive) | 11.4 µM (inactive) | 22.1 µM (inactive) | 10.1 µM (inactive) | 33.3 µM (inactive) | 18.3 µM (inactive) | 13.6 µM (inactive) | 16.7 µM (inactive) | 
Cc1ccc(S(=O)(=O)N(CC(O)COc2ccccc2)c2c(F)c(F)c(F)c(F)c2F)cc1 (stereo unspecified) | 18.3 µM (inactive) | 0.237 µM (active) | 13.2 µM (inactive) | 14.4 µM (inactive) | 17.1 µM (inactive) | 19.8 µM (inactive) |  | 14.4 µM (inactive) | 16.9 µM (inactive) | 17.9 µM (inactive) | 16.7 µM (inactive) | 13.7 µM (inactive) | 22.8 µM (inactive) | 20.7 µM (inactive) |  | 18.5 µM (inactive) | 13.4 µM (inactive) | 24.7 µM (inactive) | 16.3 µM (inactive) | 
CN1CCCN2CCN(C)CCN(CC1)CC2 | > 100 µM (inactive) | > 100 µM (inactive) | > 100 µM (inactive) | > 100 µM (inactive) | > 100 µM (inactive) | 0.0366 µM (active) | > 100 µM (inactive) | > 100 µM (inactive) | > 100 µM (inactive) |  | > 100 µM (inactive) | > 100 µM (inactive) | > 100 µM (inactive) | > 100 µM (inactive) | > 100 µM (inactive) | > 100 µM (inactive) | > 100 µM (inactive) | > 100 µM (inactive) | > 100 µM (inactive) | > 100 µM (inactive)
Cc1cc(-c2ccccc2)nc(Nc2nc3ccccc3o2)n1 | > 100 µM (inactive) | > 100 µM (inactive) | > 100 µM (inactive) | > 100 µM (inactive) | > 100 µM (inactive) | > 100 µM (inactive) | > 100 µM (inactive) | > 100 µM (inactive) | > 100 µM (inactive) | > 100 µM (inactive) | > 100 µM (inactive) | > 100 µM (inactive) | > 100 µM (inactive) | > 100 µM (inactive) | > 100 µM (inactive) | > 100 µM (inactive) | > 100 µM (inactive) | > 100 µM (inactive) | > 100 µM (inactive) | 
CO[C@]12C[C@@H](CNC(=O)c3cc(Br)c[nH]3)O[C@H]1NC(=O)N2 | > 100 µM (inactive) | > 100 µM (inactive) | > 100 µM (inactive) | > 100 µM (inactive) | > 100 µM (inactive) | > 100 µM (inactive) | > 100 µM (inactive) | > 100 µM (inactive) | > 100 µM (inactive) | > 100 µM (inactive) | > 100 µM (inactive) | > 100 µM (inactive) | > 100 µM (inactive) | > 100 µM (inactive) | > 100 µM (inactive) | > 100 µM (inactive) | > 100 µM (inactive) | > 100 µM (inactive) | > 100 µM (inactive) | 
Cc1nc2c(o1)/C(=N\c1ccccc1)c1nc(C)oc1/C2=N/c1ccccc1 | 34 µM (inactive) |  | 17.7 µM (inactive) | 25.9 µM (inactive) | 1.29 µM (inactive) | 14.1 µM (inactive) | 33 µM (inactive) | 29.3 µM (inactive) | 23.9 µM (inactive) | 21.4 µM (inactive) | 13.1 µM (inactive) | 18.8 µM (inactive) | 19.4 µM (inactive) |  | 4.73 µM (inactive) | 21.2 µM (inactive) | 24.8 µM (inactive) | 32.7 µM (inactive) | 33.1 µM (inactive) | 20.6 µM (inactive)
COc1cc(C2c3cc4c(cc3[C@@H](NCCN3CCCCC3)C3COC(=O)[C@H]23)OCO4)cc(OC)c1O (stereo partly specified) | 1.69 µM (inactive) | 0.0802 µM (active) | 0.122 µM (active) | 0.167 µM (active) | 0.237 µM (active) | 0.209 µM (active) | 0.822 µM (active) |  | 2.42 µM (inactive) | 0.0324 µM (active) | 0.0624 µM (active) | 0.298 µM (active) | 0.451 µM (active) | 1.08 µM (active) | 1.46 µM (inactive) | 0.323 µM (active) | 0.0484 µM (active) | 1.89 µM (inactive) | 0.782 µM (active) | 
